Experimental data reported in US4103082A, “Aminocyclitol derivatives and process for producing the same” (priority 1975, dated 1978).

System: Bacillus subtilis ATCC 6633
Assay: paper disk method, inhibitory zone diameter
Assay type: cell-based
Conditions: read-out: inhibitory zone diameter; for zone of inhibition at 7.8 µg/mL: ATCC6633, 7.8 γ/ml; for zone of inhibition at 15.6 µg/mL: ATCC6633, 15.6 γ/ml; for zone of inhibition at 31.2 µg/mL: ATCC6633, 31.2 γ/ml; for zone of inhibition at 62.5 µg/mL: ATCC6633, 62.5 γ/ml; for zone of inhibition at 125 µg/mL: ATCC6633, 125 γ/ml; for zone of inhibition at 250 µg/mL: ATCC6633, 250 γ/ml; for zone of inhibition at 500 µg/mL: ATCC6633, 500 γ/ml; for zone of inhibition at 1000 µg/mL: ATCC6633, 1000 γ/ml; for zone of inhibition at 2000 µg/mL: ATCC6633, 2000 γ/ml

SMILES	zone of inhibition at 7.8 µg/mL [mm]	zone of inhibition at 15.6 µg/mL [mm]	zone of inhibition at 31.2 µg/mL [mm]	zone of inhibition at 62.5 µg/mL [mm]	zone of inhibition at 125 µg/mL [mm]	zone of inhibition at 250 µg/mL [mm]	zone of inhibition at 500 µg/mL [mm]	zone of inhibition at 1000 µg/mL [mm]	zone of inhibition at 2000 µg/mL [mm]
NC[C@H]1O[C@H](O[C@H]2C[C@@H](O)[C@H](N)C[C@@H]2N)[C@H](N)[C@@H](O)[C@@H]1O [5-Deoxyneamine, 5-deoxyneamine]	11.2	13.8	15.7	20.5	23.2	25.6	28.3	30.8	33.4
NC[C@H]1O[C@H](O[C@H]2[C@H](O)C[C@H](N)C[C@@H]2N)[C@H](N)[C@@H](O)[C@@H]1O [6-Deoxyneamine, 6-deoxyneamine]	15	17.6	21.1	22.7	25.6	28.2	31.2	33.2	35.7
